# Results taken from patent publication US12398110B2, “Second generation inhibitors of mitochondrial permeability transition pore with improved plasma stability” (Oregon Health & Science University, priority 2019, dated 2025).
# Read-outs that look alike come from different tables or passages of the source.
# What was measured:
# [1] = Plasma stability determination in mouse plasma; format: in vitro ADME; conditions: mouse, read-out: Mouse Plasma t1/2
# Method: Plasma stability determination. The degradation of TR001 in the presence of mouse plasma (from Innovative Research) was used to predict the plasma stability of the compound to esterase catalyzed hydrolysis. A positive control for plasma cholinesterase, propantheline bromide, was included in all assays. Briefly, murine plasma was incubated with 1 μm TR001. Aliquots were removed at t=0, 5, 15, 30, and 60 and 120 min and quenched with acetonitrile containing structurally related compound (TR073) as the internal standard. The amount of TR001 remaining in the supernatant was assessed by LC-MS/MS in multiple reaction monitoring mode (MRM) using a 4000 QTRAP (SCIEX) with electrospray ionization source. The instrument was operated in negative mode with source parameters: source voltage […], GS1 50, GS2 50, CUR 30, TEM 650 and CAD gas MED. Optimal MRM transitions were obtained by direct infusion of the pure compound into the source. The mass spectrometer was interfaced to a Shimadzu (Columbia, MD) SIL-20AC XR auto-sampler maintained at 35° C. followed by 2 LC-20AD XR LC pumps. The internal standard and compound of interest were resolved using a Gemini-NX C18 50×2.1 mm column (Phenomenex) with 0.1% formic acid (solvent A) and 0.1% formic acid in acetonitrile (solvent B). The injection volume was 10 μL at a flow rate of 0.75 mL/min. The gradient elution was 10% B to 95% B over 5 min and held at 95% for 1 min before returning to start conditions. The column was maintained at 40° C. using a Shimadzu CTO-20AC column oven. Data were acquired using Analyst 1.6.2 and analyzed using Multiquant 3.0.1 software. The first-order rate constant for substrate depletion was determined from a linear least squares fit of the natural log of the percent parent compound remaining versus time. The rate constant was used to calculate the plasma half-life as an indicator of stability.
# [2] = tested on: mitochondria; conditions: from Roy et al. [12]; cited from earlier work
# [3] = tested on: mtPTP; experiment: Ca2+ overload induced mitochondrial swelling in isolated mouse liver mitochondria; format: biochemical; conditions: for mtPTP inhibitory activity (in words): SAR discussion of Table 2
# Method: We next sought to evaluate the effects of TR001-13 on mtPTP activity in vitro. This was performed on isolated mitochondria. In isolated mitochondria induction of mtPTP opening leads to mitochondrial swelling due to the oncotic pressure gradient created by matrix proteins >1.5 kDa that cannot diffuse through the open pore. In in vitro experiments, where isolated mitochondria are routinely suspended in sucrose-based isosmotic solutions, the change in mitochondrial size can be measured spectrometrically by detecting the decrease in light scattering at 540 nm.
# (§1) Isolation of mitochondria. C57BL6/N mouse liver mitochondria were prepared from 2 to 6 month old male mice by standard differential centrifugation. Mice fed ad libitum were euthanized with CO2 followed cervical dislocation, their livers were existed and placed in a glass beaker containing ice-cold isolation buffer (IB: 0.25 m sucrose, 10 mm Tris-HCl, 0.1 mm EGTA-Tris, pH 7.4) supplemented with fatty acid free bovine serum albumin. Livers were then cut into small pieces with scissors, rinsed with ice-cold IB, and passed through a pre-chilled Potter homogenizer with Teflon pestle. The homogenate (˜30 mL per liver) was transferred to centrifuge tubes, and unbroken cells and nuclei were removed by centrifugation at 700 g for 10 min at 4° C. The supernatant containing mitochondria and other organelles was transferred to new tubes and centrifuged at 6000 g for 10 min at 4° C. The resulting supernatant was discarded and mitochondrial pellet was carefully suspended in ice-cold IB and spun at 9500 g for 5 min at 4° C. The pellet was suspended in IB to give a protein concentration of ˜60-80 mg/mL and stored on ice. Experiments were started immediately and completed within 5 h. Protein concentration was determined by the Biuret method.
# Assessment of mitochondrial swelling. Changes in mitochondrial volume of isolated mouse liver mitochondria were followed in a 96-well clear assay plate at a final volume of 0.2 mL and 0.25 mg/mL mitochondrial protein. Absorbance was read for 30 min at 540 nm on a Tecan Infinite F200 plate reader. Activity of test compounds was addressed as follows: First, 0.1 mL of sucrose assay buffer (SAB: 0.250 m sucrose, 10 mm MOPS-Tris, 0.01 mm EGTA-Tris, 1.0 mm phosphoric acid-Tris, 10 mm glutamate and 5 mm malate, pH 7.4) supplemented with twice the CaCl2 concentration required to induce mitochondrial swelling (which was determined for each preparation of mitochondria, typically 50 μm) was dispensed to the assay plate. A set of wells also contained 2.0 mm EGTA (to prevent mitochondrial swelling). The test wells contained a range of concentrations (in 1:2 serial dilutions) of the compounds of interest or 2% DMSO. Experiments were started by the addition of 0.1 mL of mitochondrial suspension (0.5 mg/mL mitochondria in SAB without respiratory substrates) to the assay plates. EC50s±SE were determined with OriginPro software by applying Hill1 function fitting algorithm on average concentration response data of n=3-41 independent preparations.
# [4] = tested on: mtPTP; experiment: Ca2+ retention capacity (CRC) of isolated mouse liver mitochondria; format: biochemical
# Method: CRC determines the Ca^2+ threshold required for mtPTP activation; inhibitors of mtPTP are expected to increase the Ca^2+ threshold required for mtPTP induction. Extramitochondrial Ca^2+ changes are detected using the membrane-impermeant Ca^2+ indicator, Calcium Green-5N.
# as §1
# Assessment of Ca^2+ retention capacity (CRC). CRC of isolated mouse liver mitochondria was assessed as follows: First, 0.1 mL of SAB were dispensed to a 96-well black assay plate in the presence of 2% DMSO (control wells) or varying concentrations of test compounds, in 1:2 serial dilutions. Then, 0.1 mL of 0.5 mg/mL mitochondria in SAB devoid of respiratory substrates, but supplemented with 1 μm Calcium Green-5N were added to all wells of the assay plate. A train of 10 μm CaCl2 pulses was added at 2 min intervals, and fluorescence intensity (ex/em 485/535 nm) was read on Tecan Infinite F200 plate reader.
# [5] = tested on: inner mitochondrial membrane potential; experiment: Rhodamine 123 (Rh123) uptake, mitochondrial membrane potential of isolated mouse liver mitochondria; format: biochemical
# Description: We next evaluated the mitochondrial toxicity of the new triazole analogs by testing their ability to interfere with accumulation of the membrane-permeant cationic fluorescent dye rhodamine 123 (Rh123). The mitochondrial uptake of positively charged Rh123 is driven by the inside negative IMM potential, which is built by the respiratory chain or maintained by ATP hydrolysis if certain conditions are met. […] It should be noted, however, that toxicity for these compounds only occurs at ˜10-1000-fold higher concentrations compared to mtPTP inhibition, providing a good therapeutic window.
# Assessment of mitochondrial membrane potential. Mitochondrial membrane potential—to evaluate toxicity—of isolated mouse liver mitochondria was assessed based on fluorescence quenching of the cationic fluorescent dye Rh123 upon its accumulation into mitochondrial matrix due to inside negative membrane potential. Compounds that interfere with the build-up or maintenance of IMM potential would shift Rh123 fluorescence to higher values compared to DMSO treated samples. Uncoupler FCCP was used to account for nonspecific fluorescence. First, 0.1 mL of SAB was dispensed to a 96-well black assay plate. A set of wells also contained 0.8 μm FCCP (to prevent Rh123 uptake). The test wells contained a range of concentrations (in 1:2 serial dilutions) of the compounds of interest or 2% DMSO. Then, 0.1 mL of 0.5 mg/mL mitochondria in SAB devoid of respiratory substrates but supplemented with 0.8 μm Rh123 were added to all wells of the assay plate. Fluorescence intensity (ex/em 485/535 nm) was read on a Tecan Infinite F200 plate reader for 7 min and value at 5 min was considered for analysis. EC50s±SE were determined with OriginPro software by applying Hill1 function fitting algorithm on average concentration response data of n=3 independent preparations.
# [6] = Mouse Liver Mitochondria (MLM), comparative examples, read-out: Swelling EC50
# [7] = Mouse Liver Mitochondria (MLM), comparative examples
# [8] = Mouse Liver Mitochondria (MLM), comparative examples, read-out: Rh123 EC50
# [9] = isolated mouse liver mitochondria, average ± SEM, n = 3-41, read-out: Mitochondrial Swelling EC50
# [10] = compound treated CRC to DMSO treated CRC0 ratio, 1.25 μM, average ± SEM, n = 3-25
# [11] = interference with Rh123 uptake to mitochondria, average ± SEM, n = 3, read-out: Rh123 uptake EC50
smiles,measurement,setting,value
COc1ccc(-c2cc(C(=O)Nc3cc(Cl)ccc3C)nn2C)cc1O [Compound 73],half-life at 1 µM,[1],1.42 h
same,mitochondrial toxicity,[2],exhibited mitochondrial toxicity
Cc1ccc(Cl)cc1NC(=O)c1cc(-c2ccc(F)c(O)c2)[nH]n1 [Compound 72],half-life at 1 µM,[1],8.88 h
same,mitochondrial toxicity,[2],exhibited mitochondrial toxicity
Cc1ccc(N=[N+]=[N-])cc1NC(=O)c1cn(-c2ccc(F)c(O)c2)nn1,EC50,[3]; [6],0.578 µM
same,CRC/CRC0 at 1.25 μM,[4]; [7],2.4
same,EC50,[5]; [8],> 40 µM
Cc1ccc(Cl)cc1NC(=O)c1cn(-c2ccc(C)c(O)c2Cl)nn1 [drawing 66],EC50,[3]; [6],> 20 µM
same,CRC/CRC0 at 1.25 μM,[4]; [7],1
same,EC50,[5]; [8],> 40 µM
"Cc1ccc(Cl)cc1NC(=O)c1cn(-c2cc(O)cc(Cl)c2)nn1 [TR008, N-(5-chloro-2-methylphenyl)-1-(3-chloro-5-hydroxyphenyl)-1H-1,2,3-triazole-4-carboxamide]",EC50,[3]; [9],0.028 ± 0.005 µM
same,fold decrease in activity compared to TR002,"[3]; mitochondrial swelling, vs TR002",2 fold
same,CRC/CRC0 at 1.25 μM,[4]; [10],7.3 ± 1.1
same,EC50,[5]; [11],> 40 µM
CCOC(=O)Oc1cc(-n2cc(C(=O)Nc3cc(Cl)ccc3C)nn2)ccc1F,EC50,[3]; [6],0.581 µM
same,CRC/CRC0 at 1.25 μM,[4]; [7],1.8
same,EC50,[5]; [8],> 40 µM
Cc1ccc(Cl)cc1NC(=O)c1cn(-c2cc(O)cc(Cl)c2)nn1 [drawing 69],EC50,[3]; [6],0.028 µM
same,CRC/CRC0 at 1.25 μM,[4]; [7],7.3
same,EC50,[5]; [8],> 40 µM
Cc1ccc(Cl)cc1NC(=O)c1cn(-c2cc(O)cc(F)c2)nn1 [drawing 52],EC50,[3]; [6],0.01 µM
same,CRC/CRC0 at 1.25 μM,[4]; [7],13.09
same,EC50,[5]; [8],14 µM
C#Cc1ccc(Cl)cc1NC(=O)c1cn(-c2ccc(F)c(O)c2)nn1,EC50,[3]; [6],0.513 µM
same,CRC/CRC0 at 1.25 μM,[4]; [7],3.7
same,EC50,[5]; [8],> 40 µM
Cc1ccc(Cl)cc1NC(=O)c1cn(-c2cc(O)ccc2F)nn1 [drawing 53],EC50,[3]; [6],> 20 µM
same,CRC/CRC0 at 1.25 μM,[4]; [7],1.4
same,EC50,[5]; [8],> 40 µM
Cc1ccc(Cl)cc1NC(=O)c1cn(-c2ccc(F)c(O)c2)nn1 [drawing 47],EC50,[3]; [6],4 µM
same,CRC/CRC0 at 1.25 μM,[4]; [7],1
same,EC50,[5]; [8],10 µM
"Cc1ccc(Cl)cc1NC(=O)c1cn(-c2cccc(O)c2F)nn1 [TR003, N-(5-chloro-2-methylphenyl)-1-(2-fluoro-3-hydroxyphenyl)-1H-1,2,3-triazole-4-carboxamide]",EC50,[3]; [9],0.152 ± 0.036 µM
same,fold decrease in activity compared to TR001,"[3]; mitochondrial swelling, vs TR001",5 fold
same,CRC/CRC0 at 1.25 μM,[4]; [10],7.4 ± 0.5
same,EC50,[5]; [11],29.3 ± 3.3 µM
COc1ccc(-c2cc(C(=O)Nc3cc(Cl)cnc3C)nn2C)cc1O [Compound 74],half-life at 1 µM,[1],2.52 h
same,mitochondrial toxicity,[2],exhibited mitochondrial toxicity
Cc1ccc(Cl)cc1NC(=O)c1cn(-c2ccc(Cl)c(O)c2)nn1 [drawing 59],EC50,[3]; [6],0.135 µM
same,CRC/CRC0 at 1.25 μM,[4]; [7],3.9
same,EC50,[5]; [8],> 40 µM
Cc1ccc(Cl)cc1NC(=O)c1cn(-c2ccc(F)c(O)c2F)nn1 [TR005],mtPTP inhibitory activity (in words),[3],decreased activity
same,EC50,[3]; [9],0.782 ± 0.114 µM
same,CRC/CRC0 at 1.25 μM,[4]; [10],2.6 ± 0.2
same,EC50,[5]; [11],> 40 µM
"Cc1ccc(Cl)cc1NC(=O)c1cn(-c2cccc(O)c2Cl)nn1 [TR007, N-(5-chloro-2-methylphenyl)-1-(2-chloro-3-hydroxyphenyl)-1H-1,2,3-triazole-4-carboxamide]",EC50,[3]; [9],> 20 µM
same,CRC/CRC0 at 1.25 μM,[4]; [10],1.2 ± 0.1
same,EC50,[5]; [11],> 40 µM
"Cc1ccc(Cl)cc1NC(=O)c1cn(-c2cccc(O)c2C)nn1 [TR012, N-(5-chloro-2-methylphenyl)-1-(3-hydroxy-2-methylphenyl)-1H-1,2,3-triazole-4-carboxamide]",mtPTP inhibitory activity (in words),[3],inactive
same,EC50,[3]; [9],10.6 ± 1.4 µM
same,CRC/CRC0 at 1.25 μM,[4]; [10],1.4 ± 0.1
same,EC50,[5]; [11],> 40 µM
